Experimental data taken from ChEMBL document CHEMBL3112421, “Small Macrocycles As Highly Active Integrin α2β1 Antagonists” (ACS Med Chem Lett, 2014).
One block for each compound: values may come before it.

Assays:
[1] = Permeability across human Caco2 cells; type: ADME, cell-based; details: Caco-2, read-out: permeability
[2] = target: Integrin alpha2/beta1 (Homo sapiens, UniProt P05556+P17301); assay: Antagonist activity at recombinant integrin alpha2 beta1 receptor (unknown origin) assessed as inhibition of interaction with biotinylated collagen type-1 after 3 hrs by solid phase ELISA-type assay; type: protein-complex assay
[3] = Plasma concentration in Sprague-Dawley rat at 4.8 mg/kg, iv administered as bolus dose measured after 1 hr by LC-MS/MS analysis; type: ADME, organism-based; set-up: dose 4.8 mg/kg, route intravenous
[4] = Drug excretion in Sprague-Dawley rat bile at 5 mg/kg, iv administered as bolus dose measured after 2 hrs by LC-MS/MS analysis; type: ADME, organism-based; set-up: dose 5 mg/kg, route intravenous; details: read-out: Drug excretion
[5] = Drug excretion in Sprague-Dawley rat urine at 4.8 mg/kg, iv administered as bolus dose measured after 24 hrs by LC-MS/MS analysis; type: ADME, organism-based; set-up: dose 4.8 mg/kg, route intravenous; details: read-out: Drug excretion
[6] = Volume of distribution at steady state in Sprague-Dawley rat at 4.8 mg/kg, iv administered as bolus dose by LC-MS/MS analysis; type: ADME, organism-based; set-up: dose 4.8 mg/kg, route intravenous; details: in vivo, read-out: Vdss
[7] = Initial plasma concentration in Sprague-Dawley rat at 4.8 mg/kg, iv administered as bolus dose by LC-MS/MS analysis; type: ADME, organism-based; set-up: dose 4.8 mg/kg, route intravenous
[8] = Half life in Sprague-Dawley rat at 4.8 mg/kg, iv administered as bolus dose by LC-MS/MS analysis; type: ADME, organism-based; set-up: dose 4.8 mg/kg, route intravenous; details: in vivo
[9] = target: Voltage-gated inwardly rectifying potassium channel KCNH2 (Homo sapiens, UniProt Q12809); assay: Inhibition of human ERG expressed in CHO cells by patch clamp assay; type: cell-based
[10] = target: T1, Cytochrome P450 3A4 (Homo sapiens, UniProt P08684); assay: Induction of CYP3A4 activity (unknown origin) relative to control; type: ADME
[11] = target: T2, Cytochrome P450 1A2 (Homo sapiens, UniProt P05177); assay: Induction of CYP1A2 activity (unknown origin) relative to control; type: ADME
T2 sequence (P05177 whole entry): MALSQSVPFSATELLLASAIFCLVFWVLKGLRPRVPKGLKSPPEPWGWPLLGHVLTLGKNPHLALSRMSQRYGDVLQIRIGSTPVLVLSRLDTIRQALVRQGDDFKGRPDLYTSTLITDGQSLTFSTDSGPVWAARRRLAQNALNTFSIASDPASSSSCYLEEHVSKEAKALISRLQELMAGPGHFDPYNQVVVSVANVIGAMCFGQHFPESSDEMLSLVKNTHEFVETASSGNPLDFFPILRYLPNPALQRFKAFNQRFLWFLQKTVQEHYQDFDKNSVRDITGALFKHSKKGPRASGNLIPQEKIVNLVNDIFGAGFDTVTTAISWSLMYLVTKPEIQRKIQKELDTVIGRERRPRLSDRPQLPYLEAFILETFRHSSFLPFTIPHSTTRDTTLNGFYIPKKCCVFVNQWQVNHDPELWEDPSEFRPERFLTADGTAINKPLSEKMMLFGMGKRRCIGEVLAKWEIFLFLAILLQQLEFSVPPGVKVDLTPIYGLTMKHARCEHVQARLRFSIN

[12] = target: T3, Cytochrome P450 1A1 (Homo sapiens, UniProt P04798); assay: Induction of CYP1A1 activity (unknown origin) relative to control; type: ADME
T3 sequence (P04798 whole entry): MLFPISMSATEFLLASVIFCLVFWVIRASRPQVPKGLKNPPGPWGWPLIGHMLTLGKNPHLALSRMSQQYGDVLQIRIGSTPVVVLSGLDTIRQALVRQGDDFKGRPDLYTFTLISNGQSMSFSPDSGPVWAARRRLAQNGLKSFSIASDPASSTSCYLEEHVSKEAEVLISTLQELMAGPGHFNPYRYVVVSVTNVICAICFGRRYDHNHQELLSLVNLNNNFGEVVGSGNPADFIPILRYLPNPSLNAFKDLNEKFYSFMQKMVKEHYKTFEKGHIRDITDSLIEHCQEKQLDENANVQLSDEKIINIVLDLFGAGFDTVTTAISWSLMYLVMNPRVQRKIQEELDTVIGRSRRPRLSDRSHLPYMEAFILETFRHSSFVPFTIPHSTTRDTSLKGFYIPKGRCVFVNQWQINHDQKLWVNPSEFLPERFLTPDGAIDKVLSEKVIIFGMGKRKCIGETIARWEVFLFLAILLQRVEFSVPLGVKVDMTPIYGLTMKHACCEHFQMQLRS

[13] = target: T1, Cytochrome P450 3A4; assay: Inhibition of CYP3A4 (unknown origin) after 10 to 30 mins; type: ADME
[14] = system: Plasma; assay: Metabolic stability in rat plasma at 100 ng/mL measured after 4 hrs; type: ADME, cell-free
[15] = system: Plasma; assay: Metabolic stability in mouse plasma at 100 ng/mL measured after 4 hrs; type: ADME, cell-free
[16] = Drug metabolism in Swiss CD-1 mouse liver microsomes at 5 uM after 20 mins; type: ADME, Microsome; details: read-out: Drug metabolism
[17] = system: Plasma; assay: Metabolic stability in human plasma at 100 ng/mL measured after 4 hrs; type: ADME, cell-free
[18] = Drug metabolism in Sprague-Dawley rat liver microsomes at 5 uM after 20 mins; type: ADME; details: read-out: Drug metabolism
[19] = Drug metabolism in human liver microsomes at 5 uM after 20 mins; type: ADME; details: read-out: Drug metabolism
[20] = Solubility of the compound at pH 7.4 at 25 degC; type: physicochemical; details: buffer
[21] = Lipophilicity, log D of the compound at pH 7.4 at 25 degC; type: physicochemical; details: buffer
[22] = target: Integrin alpha-5/beta-1 (Homo sapiens, UniProt P05556+P08648); assay: Antagonist activity at integrin alpha5beta1 receptor (unknown origin) assessed as inhibition of interaction with biotinylated collagen type-1 after 3 hrs by solid phase ELISA-type assay; type: protein-complex assay
[23] = target: Integrin alpha1/beta1 complex (Homo sapiens, UniProt P05556+P56199); assay: Antagonist activity at integrin alpha1beta1 receptor (unknown origin) assessed as inhibition of interaction with biotinylated collagen type-1 after 3 hrs by solid phase ELISA-type assay; type: protein-complex assay
Integrin alpha1/beta1 complex, sequence (P05556 whole entry): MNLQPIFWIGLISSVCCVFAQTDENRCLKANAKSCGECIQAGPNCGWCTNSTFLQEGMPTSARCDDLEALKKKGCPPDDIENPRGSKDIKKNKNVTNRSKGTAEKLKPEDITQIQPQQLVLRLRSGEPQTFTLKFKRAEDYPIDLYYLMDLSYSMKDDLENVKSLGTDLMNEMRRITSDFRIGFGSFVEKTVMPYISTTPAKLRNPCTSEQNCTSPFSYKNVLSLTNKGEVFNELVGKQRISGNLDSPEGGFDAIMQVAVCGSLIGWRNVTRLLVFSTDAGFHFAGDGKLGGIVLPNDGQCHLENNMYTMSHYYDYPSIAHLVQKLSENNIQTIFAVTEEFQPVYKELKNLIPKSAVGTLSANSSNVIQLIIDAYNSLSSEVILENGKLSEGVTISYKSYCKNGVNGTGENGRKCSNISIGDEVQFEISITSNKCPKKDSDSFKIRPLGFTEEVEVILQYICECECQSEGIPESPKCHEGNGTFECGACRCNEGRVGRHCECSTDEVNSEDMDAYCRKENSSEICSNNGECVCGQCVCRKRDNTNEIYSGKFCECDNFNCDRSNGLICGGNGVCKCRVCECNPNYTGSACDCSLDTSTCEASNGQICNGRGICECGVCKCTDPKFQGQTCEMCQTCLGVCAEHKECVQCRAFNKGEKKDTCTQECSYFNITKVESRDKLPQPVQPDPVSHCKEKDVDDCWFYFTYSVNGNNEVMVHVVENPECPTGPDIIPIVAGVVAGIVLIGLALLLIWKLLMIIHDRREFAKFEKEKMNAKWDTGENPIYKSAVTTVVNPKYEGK
Integrin alpha1/beta1 complex, sequence (P56199 whole entry): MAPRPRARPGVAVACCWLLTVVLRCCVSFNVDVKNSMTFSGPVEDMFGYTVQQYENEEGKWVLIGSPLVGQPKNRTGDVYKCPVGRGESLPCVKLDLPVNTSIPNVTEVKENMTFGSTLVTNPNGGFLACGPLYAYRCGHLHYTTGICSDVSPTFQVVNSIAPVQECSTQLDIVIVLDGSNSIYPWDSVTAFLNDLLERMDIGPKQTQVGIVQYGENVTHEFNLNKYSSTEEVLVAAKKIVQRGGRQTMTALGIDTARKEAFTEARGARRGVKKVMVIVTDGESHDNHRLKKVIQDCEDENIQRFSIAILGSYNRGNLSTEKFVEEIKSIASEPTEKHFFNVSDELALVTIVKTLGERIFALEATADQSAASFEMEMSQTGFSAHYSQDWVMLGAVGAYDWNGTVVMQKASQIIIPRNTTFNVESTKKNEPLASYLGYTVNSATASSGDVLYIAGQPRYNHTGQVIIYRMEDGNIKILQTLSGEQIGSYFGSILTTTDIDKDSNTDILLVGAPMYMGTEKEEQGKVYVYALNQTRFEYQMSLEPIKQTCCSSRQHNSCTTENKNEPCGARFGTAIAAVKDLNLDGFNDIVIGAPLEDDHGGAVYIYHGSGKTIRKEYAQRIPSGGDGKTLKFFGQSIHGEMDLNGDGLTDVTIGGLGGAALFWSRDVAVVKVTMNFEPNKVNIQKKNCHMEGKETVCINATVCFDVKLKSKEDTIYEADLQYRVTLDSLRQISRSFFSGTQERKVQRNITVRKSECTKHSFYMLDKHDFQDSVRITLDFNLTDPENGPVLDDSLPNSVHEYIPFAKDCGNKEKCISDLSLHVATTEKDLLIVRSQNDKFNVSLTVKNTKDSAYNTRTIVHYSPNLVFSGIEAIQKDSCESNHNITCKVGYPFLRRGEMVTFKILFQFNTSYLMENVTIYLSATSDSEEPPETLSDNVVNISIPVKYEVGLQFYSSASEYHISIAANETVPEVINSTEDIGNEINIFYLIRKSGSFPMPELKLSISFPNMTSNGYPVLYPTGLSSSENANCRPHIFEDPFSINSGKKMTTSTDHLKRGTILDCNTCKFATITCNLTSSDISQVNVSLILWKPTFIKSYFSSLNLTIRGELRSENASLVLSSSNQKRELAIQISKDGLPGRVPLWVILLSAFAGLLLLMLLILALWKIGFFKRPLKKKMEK

Integrin alpha2/beta1, sequence (P05556 whole entry): as the sequence (P05556 whole entry) above
Integrin alpha2/beta1, sequence (P17301 whole entry): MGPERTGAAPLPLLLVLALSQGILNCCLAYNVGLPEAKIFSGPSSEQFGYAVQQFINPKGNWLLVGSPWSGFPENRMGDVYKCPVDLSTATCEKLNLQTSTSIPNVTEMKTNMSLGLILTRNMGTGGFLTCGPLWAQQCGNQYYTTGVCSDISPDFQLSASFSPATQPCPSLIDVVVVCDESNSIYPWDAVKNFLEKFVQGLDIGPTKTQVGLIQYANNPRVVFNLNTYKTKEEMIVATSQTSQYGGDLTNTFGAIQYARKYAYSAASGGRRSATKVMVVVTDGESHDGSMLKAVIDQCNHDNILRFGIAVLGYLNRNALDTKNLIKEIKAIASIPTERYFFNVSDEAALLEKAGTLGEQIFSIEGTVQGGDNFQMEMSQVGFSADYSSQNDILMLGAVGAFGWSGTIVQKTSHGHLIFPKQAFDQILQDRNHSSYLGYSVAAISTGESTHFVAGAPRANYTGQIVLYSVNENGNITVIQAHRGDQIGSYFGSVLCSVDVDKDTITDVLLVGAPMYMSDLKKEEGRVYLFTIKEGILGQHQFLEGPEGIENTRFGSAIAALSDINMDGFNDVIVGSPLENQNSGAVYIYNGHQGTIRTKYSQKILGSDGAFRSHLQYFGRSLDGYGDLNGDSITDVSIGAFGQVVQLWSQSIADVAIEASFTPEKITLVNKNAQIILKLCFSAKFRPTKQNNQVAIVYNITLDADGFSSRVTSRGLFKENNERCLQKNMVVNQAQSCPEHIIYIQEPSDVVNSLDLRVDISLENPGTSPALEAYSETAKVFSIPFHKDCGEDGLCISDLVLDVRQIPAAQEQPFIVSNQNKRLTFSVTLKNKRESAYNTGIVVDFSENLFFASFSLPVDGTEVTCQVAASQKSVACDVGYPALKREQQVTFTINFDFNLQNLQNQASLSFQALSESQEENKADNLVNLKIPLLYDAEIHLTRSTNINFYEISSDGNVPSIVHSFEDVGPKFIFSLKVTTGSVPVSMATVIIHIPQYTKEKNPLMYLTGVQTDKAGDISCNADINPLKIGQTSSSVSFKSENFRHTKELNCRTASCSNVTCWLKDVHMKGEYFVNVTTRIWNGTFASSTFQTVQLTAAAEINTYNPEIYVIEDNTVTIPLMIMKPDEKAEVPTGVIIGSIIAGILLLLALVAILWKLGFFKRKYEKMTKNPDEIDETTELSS
T1 sequence (P08684 whole entry): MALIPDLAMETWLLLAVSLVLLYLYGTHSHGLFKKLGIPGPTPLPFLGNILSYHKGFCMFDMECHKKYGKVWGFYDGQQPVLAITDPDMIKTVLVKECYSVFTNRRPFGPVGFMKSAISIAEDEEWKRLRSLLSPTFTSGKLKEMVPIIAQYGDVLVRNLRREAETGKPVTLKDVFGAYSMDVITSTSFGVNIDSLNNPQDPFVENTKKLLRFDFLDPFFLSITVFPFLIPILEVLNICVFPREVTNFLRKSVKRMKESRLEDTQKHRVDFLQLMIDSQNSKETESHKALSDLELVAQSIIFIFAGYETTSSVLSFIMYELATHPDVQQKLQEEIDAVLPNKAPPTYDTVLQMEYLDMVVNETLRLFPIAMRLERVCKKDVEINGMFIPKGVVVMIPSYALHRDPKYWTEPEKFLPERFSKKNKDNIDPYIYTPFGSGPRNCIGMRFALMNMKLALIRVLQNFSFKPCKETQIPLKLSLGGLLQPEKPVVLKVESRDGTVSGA
Voltage-gated inwardly rectifying potassium channel KCNH2, sequence (Q12809 whole entry): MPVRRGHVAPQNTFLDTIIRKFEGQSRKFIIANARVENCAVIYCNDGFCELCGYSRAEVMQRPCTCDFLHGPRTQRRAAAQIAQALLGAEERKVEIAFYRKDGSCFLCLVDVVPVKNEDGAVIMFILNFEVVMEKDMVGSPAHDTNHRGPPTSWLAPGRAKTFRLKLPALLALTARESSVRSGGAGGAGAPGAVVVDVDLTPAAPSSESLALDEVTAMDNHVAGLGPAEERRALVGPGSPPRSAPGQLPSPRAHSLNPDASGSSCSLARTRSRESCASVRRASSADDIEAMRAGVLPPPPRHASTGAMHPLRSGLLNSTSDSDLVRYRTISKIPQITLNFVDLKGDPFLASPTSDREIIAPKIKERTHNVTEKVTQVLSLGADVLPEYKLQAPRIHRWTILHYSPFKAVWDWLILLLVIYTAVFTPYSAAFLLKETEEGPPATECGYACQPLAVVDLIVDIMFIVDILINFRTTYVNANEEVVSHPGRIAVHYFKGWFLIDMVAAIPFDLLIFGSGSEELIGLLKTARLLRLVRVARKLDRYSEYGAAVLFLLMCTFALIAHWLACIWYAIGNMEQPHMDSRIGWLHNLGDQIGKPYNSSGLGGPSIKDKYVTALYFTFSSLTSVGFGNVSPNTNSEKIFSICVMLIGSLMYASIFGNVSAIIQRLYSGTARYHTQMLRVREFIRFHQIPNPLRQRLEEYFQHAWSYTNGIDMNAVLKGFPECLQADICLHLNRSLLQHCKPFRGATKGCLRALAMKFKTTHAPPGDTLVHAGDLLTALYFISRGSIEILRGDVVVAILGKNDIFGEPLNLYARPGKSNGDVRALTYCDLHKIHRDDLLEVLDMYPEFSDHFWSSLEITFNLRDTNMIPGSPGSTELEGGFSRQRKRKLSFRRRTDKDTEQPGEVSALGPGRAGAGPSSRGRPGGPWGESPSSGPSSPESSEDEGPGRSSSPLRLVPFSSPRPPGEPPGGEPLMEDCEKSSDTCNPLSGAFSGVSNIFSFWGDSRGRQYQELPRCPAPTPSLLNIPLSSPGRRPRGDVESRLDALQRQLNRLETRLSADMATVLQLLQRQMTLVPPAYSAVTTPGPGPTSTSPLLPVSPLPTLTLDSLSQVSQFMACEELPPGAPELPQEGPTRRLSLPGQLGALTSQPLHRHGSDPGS

SMILES: O=C1N[C@H](C(=O)O)Cc2cn(cn2)C/C=C/COc2ccc1c(Cl)c2 (mixture of isomers)
IC50 [2]: 470 nM

SMILES: O=C1N[C@H](C(=O)O)Cc2cn(cn2)C/C=C/Cc2ccc(Cl)c1c2
IC50 [2]: 176 nM

SMILES: Cc1cccc(Cl)c1C(=O)N[C@@H](Cc1ccc(NC(=O)c2c(Cl)cccc2Cl)cc1)C(=O)O
IC50 [2]: 214 nM

SMILES: O=C1N[C@H](C(=O)O)Cc2ccc(cc2)OCCCCOc2cccc(Cl)c21
IC50 [2]: 106 nM

SMILES: COc1cccc2c1C(=O)N[C@H](C(=O)O)Cc1cccc(c1)OCCCCO2
IC50 [2]: > 4000 nM

SMILES: O=C1N[C@H](C(=O)O)Cc2ncn(c2Cl)C/C=C/COc2ccc(Cl)c1c2
IC50 [2]: > 4000 nM

SMILES: O=C1N[C@H](C(=O)O)Cc2cn(nn2)CCCCOc2ccc(Cl)c1c2
IC50 [2]: 497 nM

SMILES: O=C1N[C@H](C(=O)O)Cc2ccc(cc2)OC/C=C/COc2ccc(Cl)c1c2
IC50 [2]: 101 nM

SMILES: O=C1N[C@H](C(=O)O)Cc2cn(cn2)C/C=C/COc2ccc(Cl)c1n2
IC50 [2]: 36 nM

SMILES: O=C1NC(C(=O)O)CCc2cn(cn2)CCCCOc2ccc(Cl)c1c2 (racemic)
IC50 [2]: > 5000 nM

SMILES: Cc1ccc2cc1C(=O)N[C@H](C(=O)O)Cc1cccc(c1)OC/C=C/CO2
IC50 [2]: 1050 nM

SMILES: O=C1N[C@H](C(=O)O)Cc2cn(c3ccccc23)C/C=C/COc2ccc(Cl)c1c2
IC50 [2]: 12 nM

SMILES: O=C1N[C@H](C(=O)O)Cc2cccc(c2)OCCCCOc2ccc(Cl)c1c2
IC50 [2]: 142 nM

SMILES: O=C1N[C@H](C(=O)O)Cc2cn(cn2)C/C=C/COc2ccc(Cl)c1c2Cl
IC50 [2]: 869 nM

SMILES: O=C1N[C@H](C(=O)O)Cc2ccc(cc2)OC/C=C/COc2cccc(Cl)c21
IC50 [2]: 178 nM

SMILES: O=C1N[C@H](C(=O)O)Cc2cccc(c2)OCCCCOc2ccc1c(F)c2
IC50 [2]: > 4000 nM

SMILES: COC(=O)[C@@H]1Cc2cn(cn2)C/C=C/COc2ccc(Cl)c(c2)C(=O)N1
Papp [1]: > 2 ×10⁻⁶ cm/s

SMILES: O=C1N[C@H](C(=O)O)Cc2cccc(c2)OCCCCOc2cccc(Cl)c21
IC50 [2]: 978 nM

SMILES: O=C1N[C@H](C(=O)O)Cc2cccc(c2)OC/C=C/COc2cc(C(F)(F)F)c1cn2
IC50 [2]: 1900 nM

SMILES: O=C1N[C@H](C(=O)O)Cc2ccc(nc2)OCCCCOc2ccc(Cl)c1c2
IC50 [2]: 792 nM

SMILES: O=C1N[C@H](C(=O)O)Cc2cccc(c2)OCCCCOc2ccc1c(Cl)c2
IC50 [2]: 114 nM

SMILES: O=C1N[C@H](C(=O)O)Cc2ccc(nc2)OC/C=C/COc2ccc(Cl)c1c2
IC50 [2]: 134 nM

SMILES: O=C1N[C@H](C(=O)O)Cc2ccc(cc2)OCCCCOc2ccc(Cl)c1c2
IC50 [2]: 731 nM

SMILES: O=C1N[C@H](C(=O)O)Cc2cccc(c2)OC/C=C/COc2ccc1c(F)c2
IC50 [2]: > 1000 nM

SMILES: O=C1NC(C(=O)O)CCc2cn(cn2)C/C=C/COc2ccc(Cl)c1c2 (racemic)
IC50 [2]: > 5000 nM

SMILES: O=C1N[C@H](C(=O)O)Cc2cccc(c2)OC/C=C/COc2ccc1c(Cl)c2
IC50 [2]: 163 nM

SMILES: O=C1N[C@H](C(=O)O)Cc2cn(nn2)C/C=C/COc2ccc(Cl)c1c2
IC50 [2]: 34 nM

SMILES: O=C1N[C@H](C(=O)O)Cc2cccc(c2)OCCCCOc2cccc1c2
IC50 [2]: > 10000 nM

More lines, main results first:

Papp [1]: > 2 ×10⁻⁶ cm/s
SMILES: CCOC(=O)[C@@H]1Cc2cn(cn2)C/C=C/COc2ccc(Cl)c(c2)C(=O)N1

IC50 [2]: 745 nM
SMILES: Cc1ccc2cc1C(=O)N[C@H](C(=O)O)Cc1cccc(c1)OCCCCO2

IC50 [2]: 38 nM
SMILES: O=C1N[C@H](C(=O)O)Cn2cc(nn2)C/C=C/COc2ccc(Cl)c1c2 (mixture of isomers)

IC50 [2]: > 4000 nM
SMILES: O=C1NC(C(=O)O)Cc2ccccc2OCCCCOc2ccc(Cl)c1c2 (racemic)

IC50 [2]: 909 nM
SMILES: O=C1N[C@@H](C(=O)O)Cc2cn(cn2)C/C=C/COc2ccc(Cl)c1c2

IC50 [2]: 588 nM
SMILES: O=C1N[C@H](C(=O)O)Cc2cccc(c2)OC/C=C/COc2cccc(Cl)c21

IC50 [2]: 731 nM
SMILES: O=C1N[C@H](C(=O)O)Cc2cn(cn2)CCCCCOc2ccc(Cl)c1c2

concentration at 1 h [3]: < 10 ng/mL
dose excreted at 2 h [4]: 50%
dose excreted at 24 h [5]: 24%
Vd [6]: 3.6 L/kg
C0 [7]: 1700 ng/mL
half-life [8]: 14.4 min
Activity [10]: < 10%
Activity [11]: < 10%
Activity [12]: < 10%
IC50 [13]: > 30000 nM
Papp [1]: 0.1 ×10⁻⁶ cm/s
Stability [14]: Stable
Stability [15]: Stable
metabolised at 20 min, 5 µM [16]: 0%
Stability [17]: Stable
metabolised at 20 min, 5 µM [18]: 0%
metabolised at 20 min, 5 µM [19]: 3%
solubility [20]: 1540 µg/mL
logD [21]: 0.05
IC50 [22]: 74 nM
IC50 [23]: 33 nM
IC50 [2]: 4 nM
SMILES: Cl.O=C1N[C@H](C(=O)O)Cc2cn(cn2)C/C=C/COc2ccc(Cl)c1c2
IC50 [9]: > 10000 nM

IC50 [2]: 667 nM
SMILES: O=C1N[C@H](C(=O)O)Cc2cccc(c2)OC/C=C/COc2ccc([N+](=O)[O-])c1c2

IC50 [2]: > 4000 nM
SMILES: O=C1N[C@@H](C(=O)O)Cc2cn(cn2)CCCCOc2ccc(Cl)c1c2

IC50 [2]: > 1000 nM
SMILES: O=C1N[C@H](C(=O)O)Cc2cccc(c2)OC/C=C/COc2cccc(F)c21

IC50 [2]: > 1000 nM
SMILES: O=C1N[C@H](C(=O)O)Cc2cccc(n2)NCCCCOc2ccc(Cl)c1c2

IC50 [2]: 1300 nM
SMILES: O=C1N[C@H](C(=O)O)Cn2cc(nn2)CCCCOc2ccc(Cl)c1c2

IC50 [2]: 270 nM
SMILES: O=C1N[C@H](C(=O)O)Cc2cn(cn2)CC/C=C/COc2ccc(Cl)c1c2 (mixture of isomers)

IC50 [2]: > 1000 nM
SMILES: O=C1N[C@H](C(=O)O)Cc2cccc(n2)NC/C=C/COc2ccc(Cl)c1c2

IC50 [2]: 366 nM
SMILES: O=C1N[C@H](C(=O)O)Cc2cn(cn2)CCCCOc2ccc(Cl)c1c2

IC50 [2]: > 1000 nM
SMILES: O=C1N[C@H](C(=O)O)Cc2cccc(c2)OCCCCOc2cccc(F)c21

IC50 [2]: 233 nM
SMILES: O=C1N[C@H](C(=O)O)Cc2cccc(c2)OC/C=C/COc2ccc(Cl)c1c2
